One series deals with 293. The settings on record: human. As for the experimental part: (§1) Cytotoxicity of COMPOUND 3 (an analog of COMPOUND 1, FIG. 1A) and other anticancer therapeutics were measured using cancer cells with various origins.
In another series the test system is RPM17951. The settings on record: human. As for the experimental part:
as §1

The next series relates to MCF7. As to conditions: human. How it is done:
as §1

Another series deals with PC3. As to conditions: human. How it is done:
as §1

For another series, the system named is HL60. The settings on record: human. As for the experimental part: as §1
The test system of the next series is A549. As to conditions: human. How it is done: as §1
The next series deals with T1, CBP (Homo sapiens, UniProt Q92793).
T1 construct: endogenous in cells; host or cells: SW480 nuclear extract
T1 sequence (Q92793 whole entry): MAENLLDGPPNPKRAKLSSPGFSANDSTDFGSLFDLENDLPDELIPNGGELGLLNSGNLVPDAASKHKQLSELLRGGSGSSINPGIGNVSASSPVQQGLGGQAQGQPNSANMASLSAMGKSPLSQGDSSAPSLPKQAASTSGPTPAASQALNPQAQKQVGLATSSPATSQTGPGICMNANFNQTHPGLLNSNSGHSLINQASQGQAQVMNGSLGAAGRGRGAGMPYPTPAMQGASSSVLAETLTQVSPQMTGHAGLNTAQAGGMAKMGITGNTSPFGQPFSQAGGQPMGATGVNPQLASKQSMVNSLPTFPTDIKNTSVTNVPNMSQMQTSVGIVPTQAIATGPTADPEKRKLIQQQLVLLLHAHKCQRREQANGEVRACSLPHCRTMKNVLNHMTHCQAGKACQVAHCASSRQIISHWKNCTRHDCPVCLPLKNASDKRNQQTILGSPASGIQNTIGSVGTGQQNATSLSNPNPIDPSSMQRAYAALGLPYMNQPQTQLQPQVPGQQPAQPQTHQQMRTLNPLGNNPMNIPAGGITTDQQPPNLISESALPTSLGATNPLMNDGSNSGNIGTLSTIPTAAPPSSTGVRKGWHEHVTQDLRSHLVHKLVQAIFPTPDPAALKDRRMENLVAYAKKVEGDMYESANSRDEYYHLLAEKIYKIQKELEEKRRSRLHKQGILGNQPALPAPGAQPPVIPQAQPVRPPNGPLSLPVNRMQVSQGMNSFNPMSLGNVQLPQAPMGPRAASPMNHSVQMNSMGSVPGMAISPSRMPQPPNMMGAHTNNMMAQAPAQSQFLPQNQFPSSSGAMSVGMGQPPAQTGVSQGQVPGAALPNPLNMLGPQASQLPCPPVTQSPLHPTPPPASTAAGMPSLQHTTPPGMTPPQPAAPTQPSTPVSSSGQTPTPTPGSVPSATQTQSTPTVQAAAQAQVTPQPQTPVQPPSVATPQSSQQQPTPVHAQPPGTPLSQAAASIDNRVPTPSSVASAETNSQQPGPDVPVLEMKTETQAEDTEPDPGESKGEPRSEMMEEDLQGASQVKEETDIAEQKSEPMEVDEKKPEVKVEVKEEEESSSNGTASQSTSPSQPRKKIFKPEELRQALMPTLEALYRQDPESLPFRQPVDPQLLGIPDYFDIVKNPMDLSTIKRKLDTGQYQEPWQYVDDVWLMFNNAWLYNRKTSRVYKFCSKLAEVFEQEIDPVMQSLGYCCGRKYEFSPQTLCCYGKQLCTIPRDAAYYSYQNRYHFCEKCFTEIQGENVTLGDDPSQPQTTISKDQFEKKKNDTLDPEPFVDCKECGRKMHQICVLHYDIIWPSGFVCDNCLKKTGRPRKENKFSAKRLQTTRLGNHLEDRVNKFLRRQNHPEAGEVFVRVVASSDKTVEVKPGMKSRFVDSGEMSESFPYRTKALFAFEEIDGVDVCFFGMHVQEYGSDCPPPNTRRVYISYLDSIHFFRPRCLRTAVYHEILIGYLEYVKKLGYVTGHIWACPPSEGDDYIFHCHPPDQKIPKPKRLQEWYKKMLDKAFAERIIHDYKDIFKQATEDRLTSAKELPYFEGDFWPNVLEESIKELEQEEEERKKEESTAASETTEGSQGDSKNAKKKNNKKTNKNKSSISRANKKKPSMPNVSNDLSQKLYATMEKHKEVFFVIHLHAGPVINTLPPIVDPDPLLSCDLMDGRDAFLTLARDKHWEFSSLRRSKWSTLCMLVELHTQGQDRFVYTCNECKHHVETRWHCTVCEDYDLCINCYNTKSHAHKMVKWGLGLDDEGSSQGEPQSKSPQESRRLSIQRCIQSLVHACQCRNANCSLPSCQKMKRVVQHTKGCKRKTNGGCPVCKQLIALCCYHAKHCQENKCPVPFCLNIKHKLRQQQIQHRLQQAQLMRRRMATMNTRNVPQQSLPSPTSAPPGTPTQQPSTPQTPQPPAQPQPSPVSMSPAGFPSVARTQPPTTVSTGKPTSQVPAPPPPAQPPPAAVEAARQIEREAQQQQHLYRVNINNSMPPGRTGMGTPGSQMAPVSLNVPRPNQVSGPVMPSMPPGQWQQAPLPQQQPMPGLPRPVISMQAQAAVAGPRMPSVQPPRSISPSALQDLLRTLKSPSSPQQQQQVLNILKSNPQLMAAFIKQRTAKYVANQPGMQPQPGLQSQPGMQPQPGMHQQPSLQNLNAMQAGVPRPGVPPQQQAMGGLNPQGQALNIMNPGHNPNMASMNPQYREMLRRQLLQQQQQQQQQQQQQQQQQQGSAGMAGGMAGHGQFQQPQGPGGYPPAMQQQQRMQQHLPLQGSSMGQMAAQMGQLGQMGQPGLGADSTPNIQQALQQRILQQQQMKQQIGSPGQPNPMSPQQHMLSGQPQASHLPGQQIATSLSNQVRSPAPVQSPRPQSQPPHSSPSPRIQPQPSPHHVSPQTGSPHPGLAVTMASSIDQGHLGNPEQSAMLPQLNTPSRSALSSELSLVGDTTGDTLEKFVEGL
Put plainly: COMPOUND 2 streptavidin-agarose affinity pull-down from SW480 nuclear extracts. The format is binding. The settings on record: SW480 nuclear extract, immunoblotting with anti-CBP. How it is done: FIG. 1. COMPOUND 1 inhibits β-catenin/TCF transcription. • A(i) and A(ii). Structures of COMPOUND 1, COMPOUND 2, COMPOUND 3, COMPOUND 4, and COMPOUND 5. • B(i) and B(ii). […] SW480 cells (10^5), (FIG. 1B(i)), were transfected with β-catenin/TCF luciferase construct. Cells were treated with COMPOUND 1 (1-64 μM). 24 hours post treatment lysates were prepared and subjected to dual luciferase assay. The data is represented in different form in FIG. 1B(ii). • C. COMPOUND 1 has no effect on NFAT reporter construct. Stably transfected Jurkat cells, right panel, with an NFAT reporter construct, were stimulated with PMA (10 ng/ml)/lonomycin (1 μg/ml), and treated with COMPOUND 1 (0.781-50 μM). 24 hours post treatment lysates were prepared and subjected to dual luciferase assay. All experiments were performed in duplicate and the values plotted as means +/−standard deviation. • D. CBP is the molecular target of COMPOUND 1. Nuclear extracts of SW480 cells were incubated with streptavidin-agarose beads coated with COMPOUND 2 (25 μM). Beads were washed 3 times and the eluted were subjected to gel electrophoresis and immunoblotting, with anti-CBP antibodies. […] The lysates were desalted using G-25 1 cc columns (Pharmacia) to remove the unbound ^14C-labeled-COMPOUND 1, and ^14C-labeled-COMPOUND 1 incorporation was measured. […]

For another series, the target named is T2, CBP (1-111) (Mus musculus, UniProt P45481).
T2 construct: 6xHis (C); HSV tag (C); expressed in transfected cells
T2 sequence (P45481 1-110): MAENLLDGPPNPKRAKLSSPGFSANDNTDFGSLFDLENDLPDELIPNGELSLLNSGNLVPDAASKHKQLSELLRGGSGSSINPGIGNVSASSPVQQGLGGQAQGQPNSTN
Put plainly: Pull-down of CBP deletion constructs on COMPOUND 2 coated beads, competition with excess COMPOUND 1. The format is binding. The settings on record: E. coli expressed 6x-His protein, 100 μM COMPOUND 2.

In a further series the target is T3, p300 (1-111) (Homo sapiens, UniProt Q09472).
T3 construct: 6xHis (C); HSV tag (C); expressed in transfected cells
T3 sequence (Q09472 1-117): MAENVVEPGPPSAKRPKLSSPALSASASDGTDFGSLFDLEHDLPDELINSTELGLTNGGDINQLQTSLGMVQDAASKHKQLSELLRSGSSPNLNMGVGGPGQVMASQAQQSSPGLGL
Put plainly: Pull-down of p300 deletion constructs on COMPOUND 2 coated beads, competition with excess COMPOUND 1. Format: binding. The settings on record: E. coli expressed 6x-His protein, 100 μM COMPOUND 2. How it is done: FIG. 2. The first 111 amino acids of CBP, but not p300, specifically bind COMPOUND 1. • A. Schematic representation of the wild-type and deletion constructs for CBP. • B. CBP (1-111) contains the minimal binding domain of COMPOUND 1. Expression levels of CBP deletion constructs in SW480 cells are shown (upper panel). 10 μg of total protein was subjected to gel electrophoresis and subjected to immunoblotting using anti-His antibodies. Whole cell lysates of SW480 cells expressing CBP deletion constructs were bound to streptavidin-agarose beads coated with 100 μM of COMPOUND 2. The bound fractions were subjected to gel electrophoresis and immunoblotting using anti-His antibodies (lower panel). Arrows point to constructs which remained bound to COMPOUND 2 coated beads. • C. […] CBP deletion constructs, CBP(1-111),CBP (1-211), and CBP (1-351) and p300 deletion constructs, p300 (1-111), p300 (1-211), and p300 (1-351) were transfected into SW480 cells. Whole cell lysates were incubated with streptavidin-agarose beads or streptavidin-agarose beads coated with 100 μM COMPOUND 2 (lower panel). The binding of CBP constructs (1-111,1-211, and 1-351) and p300 constructs (1-111,1-211, and 1-351) to the beads was challenged with excess COMPOUND 1 (150 μM). • D. CBP (1-111) binds to COMPOUND 1 in a phosphorylation independent manner. […]

The test system of another series is Min mouse. Put plainly: Polyp number in Min mouse model. The format is in vivo. As to conditions: for Polyp Number (Mean + S.D.), Colon / Polyp Number (Mean + S.D.), Small intestine / Polyp Number (Mean + S.D.), Total / % Inhibition vs. VH: Min mouse; for % Inhibition vs. VH: total polyp number vs. vehicle. As for the experimental part: COMPOUND 4, COMPOUND 5, or vehicle was administrated in wild type and Min mice. COMPOUND 4 is also an analog of COMPOUND 1 (FIG. 1A). The numbers of polyp formed in small intestine and colon of these mice after various treatments were measured (Table 6).

The next series deals with SW480 cells. Put plainly: Soft agar colony formation assay with SW480 cells. The settings on record: Homo sapiens, 192 h, 5000 cells/well, colonies counted after 8 days. The format is cell-based, human.

As for `COc1cccc2c1C(=O)c1c(O)c3c(c(O)c1C2=O)C[C@@](O)(C(=O)CO)C[C@@H]3O[C@H]1C[C@H](N)[C@H](O)[C@H](C)O1` [ADR, adriamycin], the Cytotoxicity was <0.03 µg/mL in the series on 293; 0.171 µg/mL in the series with RPM17951; 1.424 µg/mL in the series with MCF7; 0.267 µg/mL with PC3; 0.086 µg/mL with HL60; 0.117 µg/mL in the series with A549.
Turning to `O=C(CCCCCNC(=O)CCCCC1SCC2NC(=O)NC21)NCCCCCC(=O)NCc1cccc(CNC(=O)N2CCC(=O)N3C(Cc4ccc(O)cc4)C(=O)N(Cc4cccc5ccccc45)CC23)c1` (stereo not shown) [COMPOUND 2], the “Major band retained on COMPOUND 2 affinity column” value on CBP is recorded as “identified by immunoblotting as the CREB Binding Protein (CBP)”. For the same compound, the “Binding of purified CBP (1-111) to COMPOUND 2 beads” value on CBP (1-111) is reported as “specific binding”. At p300 (1-111), the “Binding of purified p300 (1-111) to COMPOUND 2 beads” value was “not p300 (1-111)”.
As to `CC1=C(CC(=O)O)c2cc(F)ccc2/C1=C\c1ccc([S+](C)[O-])cc1` (stereo not shown) [Sulindac, reference compound], in the series with Min mouse (160 ppm), the “Polyp Number (Mean + S.D.), Colon” value came out at 0.5 ± 0.5; the “Polyp Number (Mean + S.D.), Small intestine” value was 48.0 ± 20.7; the “Polyp Number (Mean + S.D.), Total” value came out at 48.5 ± 20.9; the “% Inhibition vs. VH” value was 28%.
For the compound `O=c1[nH]cc(F)c(=O)[nH]1` [5-FU, 5-fluorouracil], the midpoint of inhibition in the series on SW480 cells, the IC50, lay at 1.98 ± 0.17 µM. For the same compound, the Cytotoxicity in the series on 293 is 2.015 µg/mL; with RPM17951 it was 0.920 µg/mL; in the series with MCF7, 1.751 µg/mL; with PC3, >10 µg/mL; in the series on HL60 it was 7.010 µg/mL; in the series on A549, 1.007 µg/mL.
Regarding `CN1CC(=O)N2C(Cc3ccc(O)cc3)C(=O)N(Cc3cccc4cccnc34)CC2N1C(=O)NCc1ccccc1` (stereo not shown) [COMPOUND 4], in the series with Min mouse (Min mice, about 300 mpk), the “Effect on number of polyp compared to vehicle control” value is reported as “reduce the number of polyp”. In the series with Min mouse (300 mpk), the “Polyp Number (Mean + S.D.), Colon” value amounted to 1.4 ± 0.9; the “Polyp Number (Mean + S.D.), Small intestine” value is listed as 45.2 ± 22.1; the “Polyp Number (Mean + S.D.), Total” value was determined as 46.8 ± 17.0; the “% Inhibition vs. VH” value was 31%.

The values are drawn from US7531320B2, “Modulation of β-catenin/TCF-activated transcription” (priority 2003, dated 2009).
